Source: PubChem BioAssay AID401 (SGCOxCompounds, 2006)

The molecules below were run against Tyrosine-protein phosphatase non-receptor type 7 (Homo sapiens) (UniProt P35236) (assay: PTPN7 phosphatase inhibitors, biochemical, DiFMUP fluorescence, recombinant human enzyme (AID 401)). Details: at 50 µM, enzyme 37.6 ng/mL, 25 °C, DTT 5 mM, hits give high values.
Sequence of Tyrosine-protein phosphatase non-receptor type 7 (Homo sapiens) (P35236 whole entry, looked up): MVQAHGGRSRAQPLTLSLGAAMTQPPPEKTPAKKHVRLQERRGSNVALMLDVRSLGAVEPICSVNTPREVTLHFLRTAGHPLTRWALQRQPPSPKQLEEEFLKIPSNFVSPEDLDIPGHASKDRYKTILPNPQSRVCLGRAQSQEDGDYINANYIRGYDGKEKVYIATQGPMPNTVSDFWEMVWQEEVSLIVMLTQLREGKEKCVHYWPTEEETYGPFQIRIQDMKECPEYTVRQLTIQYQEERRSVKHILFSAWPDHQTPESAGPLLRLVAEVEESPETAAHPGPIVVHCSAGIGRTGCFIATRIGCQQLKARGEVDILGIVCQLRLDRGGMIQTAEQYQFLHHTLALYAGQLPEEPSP

In order of rising inhibition:
1. Cn1nc(-c2ccccc2)nc2c(=O)n(C)c(=O)nc1-2  37%
2. OO.OO.[K+].[O]=[V].c1cnc2c(c1)ccc1cccnc12  55%
3. O=C(O)c1ccc(O)cn1.OO.[O]=[V]  58.5%
4. O=C([O-])c1ccccn1.OO.OO.[K+].[K+].[O]=[V]  71.5%

Same assay, conditions: at 50 µM, enzyme 55 ng/mL, 25 °C, DTT 5 mM, hits give high values

In order of rising inhibition:
1. O=C(COc1ccc([N+](=O)[O-])cc1)Nc1ccc(O)cc1C(=O)O  13%
2. CCn1nc(-c2ccccc2)nc2c(=O)n(C)c(=O)nc1-2  16%
3. Oc1c(Cl)c(Cl)c(O)c2nsnc12  24%
4. CC1=C(C)OC(Nc2ccc(Cl)cc2C(=O)O)C=C1 (configuration not stated)  25%
5. O=C(O)c1ccc(O)c(C=Nc2ccc3oc(-c4cccc(Cl)c4)nc3c2)c1  25%
6. CC(C)CN1C(=O)c2ccc(C(=O)Nc3ccc(O)cc3C(=O)O)cc2C1=O  26%
7. O=C(O)c1ccc(O)c(C=Nc2ccc3oc(-c4ccccc4)nc3c2)c1  31%
8. COc1ccc(OC)c(N=Cc2cc(C(=O)O)ccc2O)c1  31%
9. CCn1nc(/C=C/c2ccccc2)[n+](=O)c2c(=O)n(C)c(=O)[nH]c21  32%
10. O=C(Nc1ccc(O)cc1C(=O)O)c1ccc2c(c1)C(=O)N(CC1CCCO1)C2=O (configuration not stated)  35%
11. Cc1cccc(O)c1N=Cc1cc(C(=O)O)ccc1O  37%
12. O=C(O)c1ccc(O)c(C=Nc2ccc3oc(-c4cc(Cl)ccc4Cl)nc3c2)c1  39%
13. CCn1nc(/C=C/c2ccccc2)nc2c(=O)n(C)c(=O)nc1-2  39%
14. CCOC(=O)c1ccc(N=Cc2cc(C(=O)O)ccc2O)cc1  39%
15. O=C(O)c1ccc(O)c(C=Nc2cccc(-c3nc4ccccc4o3)c2)c1  40%
16. O=C(O)c1ccc(O)c(N2C(=O)Nc3ccccc3N2O)c1  41%
17. Cc1ccc(N=Cc2cc(C(=O)O)ccc2O)c(O)c1  42%
18. Cc1cc(C)c(N2C(=O)c3ccc(C(=O)Nc4ccc(O)cc4C(=O)O)cc3C2=O)c(C)c1  44%
19. CC(C)CCN1C(=O)c2ccc(C(=O)Nc3ccc(O)cc3C(=O)O)cc2C1=O  45%
20. Cn1nc(/C=C/c2ccccc2)nc2c(=O)n(C)c(=O)nc1-2  45%
21. Cc1ccc(C)n1-c1ccc(C(=O)O)cc1O  47%
22. COc1cccc(-c2nc3cc(N=Cc4cc(C(=O)O)ccc4O)ccc3o2)c1  56%
23. O=C(O)c1ccc(O)c(/C=N/N(CCO)C2=NS(=O)(=O)c3ccccc32)c1  57%
24. CCn1nc(-c2ccc(Cl)cc2)nc2c(=O)n(C)c(=O)nc1-2  58%
25. [NH-]CO.[NH-]CO.[NH-]CO.[NH-]CO.[O]=[V][O][V]=[O]  58%
26. O=C(O)c1ccc(O)c(C=Nc2ccc3oc(-c4cccc(Cl)c4Cl)nc3c2)c1  61%
27. Cc1c(Cl)c(C)c([N+](=O)[O-])c(O)c1C=Nc1ccc(O)cc1C(=O)O  62%
28. OO.OO.[K+].[O]=[V].c1ccc(-c2ccccn2)nc1  69%
29. O=C(O)c1ccc([O-])cn1.OO.OO.[K+].[K+].[O]=[V]  76%
30. Cc1ccc(C)n1-c1cc(C(=O)O)ccc1O  77%
31. COc1ccc(-c2nc3cc(N=Cc4cc(C(=O)O)ccc4O)ccc3o2)cc1  80%
32. CC(=O)c1ccc2c(c1)C1C=CCC1C(C(=O)O)N2 (configuration not stated)  89%
33. CN(N=O)c1ccc(O)c(O)c1  92%
34. NC1=NC(=O)/C(=C/C=C/c2ccc([N+](=O)[O-])o2)S1  94%
35. O=C1NC(=S)NC(=O)C1=C/C=C/c1ccco1  97%
36. Cc1ccc2nc(-c3cc(N=Cc4cc(C(=O)O)ccc4O)ccc3O)[nH]c2c1  98%
37. O=C1NC(=S)S/C1=C\C=C\c1ccc([N+](=O)[O-])o1  99%
38. O=C(O)c1ccc(O)c(C=Nc2ccc3oc(-c4ccc(F)cc4Cl)nc3c2)c1  100%
